According to BigSolDB 2.1:

c1ccc(P(c2ccccc2)c2ccccc2)cc1
Conditions	solubility (mole fraction)
in acetone, 303.2 K	0.089
in acetone, 308.1 K	0.12
in acetone, 313.4 K	0.14
in acetone, 318.2 K	0.19
in acetone, 323.5 K	0.25
in acetone, 327.8 K	0.33
in acetone, 333.1 K	0.42
in benzene, 303.3 K	0.069
in benzene, 308.6 K	0.095
in benzene, 312.9 K	0.12
in benzene, 318.1 K	0.16
in benzene, 323.2 K	0.22
in benzene, 328.1 K	0.28
in benzene, 333.2 K	0.37
in ethanol, 303.5 K	0.0095
in ethanol, 308.3 K	0.012
in ethanol, 313.3 K	0.016
in ethanol, 318.6 K	0.022
in ethanol, 323.2 K	0.028
in ethanol, 327.9 K	0.038
in ethanol, 333 K	0.05
in isopropanol, 303.1 K	0.0077
in isopropanol, 308.4 K	0.01
in isopropanol, 313.3 K	0.014
in isopropanol, 318.2 K	0.019
in isopropanol, 322.9 K	0.025
in isopropanol, 328.4 K	0.033
in isopropanol, 333.2 K	0.045
in toluene, 302.4 K	0.05
in toluene, 308.2 K	0.07
in toluene, 313.7 K	0.1
in toluene, 318.2 K	0.13
in toluene, 323.3 K	0.18
in toluene, 328.3 K	0.24
in toluene, 333.4 K	0.32
